Test results as given in PMC9736855, “Discovery of 3-Amino-1H-pyrazole-Based Kinase Inhibitors to Illuminate the Understudied PCTAIRE Family” (International Journal of Molecular Sciences, 2022).

Assays:
Assay in all cases: DSF
Format in all cases: binding
CSNK1D = target: T1, CSNK1D (Homo sapiens, UniProt P48730);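 further: compound tested at 10 µM with 2 µM protein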
T1 construct: purchased in-house DSF panel (SGC Frankfurt)
T1 sequence (P48730 1-294): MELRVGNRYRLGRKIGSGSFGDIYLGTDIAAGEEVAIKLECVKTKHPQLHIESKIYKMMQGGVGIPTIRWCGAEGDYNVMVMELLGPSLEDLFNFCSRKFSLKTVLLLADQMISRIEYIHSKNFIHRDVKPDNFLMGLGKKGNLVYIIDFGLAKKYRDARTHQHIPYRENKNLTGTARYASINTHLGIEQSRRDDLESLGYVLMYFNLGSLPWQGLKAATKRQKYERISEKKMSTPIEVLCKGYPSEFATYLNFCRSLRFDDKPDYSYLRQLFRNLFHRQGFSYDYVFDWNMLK
Experimental: (§1) Recombinant protein kinase domains with a concentration of 2 μM were mixed with a 10 μM compound solution in DMSO, 20 mM HEPES, pH 7.5, and 500 mM NaCl. SYPRO Orange (5000×, Invitrogen) was added as a fluorescence probe (1 µl per mL). Subsequently, temperature-dependent protein unfolding profiles were measured, using the QuantStudio™ 5 realtime PCR machine (Thermo Fisher, Waltham, MA, USA). […] The temperature was raised with a step rate of 3 °C per minute. Data points were analyzed with the internal software (Thermal Shift SoftwareTM Version 1.4, Thermo Fisher) using the Boltzmann equation to determine the inflection point of the transition curve [56]. Differences in melting temperature are given as ΔTm values in °C. Measurements were performed in duplicates.

DYRK2 = target: T2, DYRK2 (Homo sapiens, UniProt Q92630)
T2 construct: purchased in-house DSF panel (SGC Frankfurt)
T2 sequence (Q92630 1-601): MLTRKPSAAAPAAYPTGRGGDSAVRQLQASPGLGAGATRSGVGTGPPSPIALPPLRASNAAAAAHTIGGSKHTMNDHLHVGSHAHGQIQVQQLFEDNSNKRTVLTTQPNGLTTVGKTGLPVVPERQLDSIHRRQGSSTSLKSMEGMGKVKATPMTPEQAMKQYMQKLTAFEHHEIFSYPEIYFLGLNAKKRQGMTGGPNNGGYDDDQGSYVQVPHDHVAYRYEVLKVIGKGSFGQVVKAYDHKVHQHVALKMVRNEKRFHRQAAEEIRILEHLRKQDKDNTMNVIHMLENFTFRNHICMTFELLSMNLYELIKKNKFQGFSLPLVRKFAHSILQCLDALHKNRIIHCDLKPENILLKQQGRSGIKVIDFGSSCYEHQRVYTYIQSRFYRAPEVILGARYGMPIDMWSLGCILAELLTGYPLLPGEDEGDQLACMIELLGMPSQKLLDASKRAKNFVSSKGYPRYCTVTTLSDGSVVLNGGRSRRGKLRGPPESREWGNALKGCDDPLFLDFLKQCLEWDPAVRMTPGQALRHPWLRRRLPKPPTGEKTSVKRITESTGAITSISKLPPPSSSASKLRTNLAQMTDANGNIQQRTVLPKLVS
Experimental: as §1

CAMK2D = target: T3, CAMK2D (Homo sapiens, UniProt Q13557);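 further: compound tested at 10 µM with 2 µM protein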
T3 construct: purchased in-house DSF panel (SGC Frankfurt)
T3 sequence (Q13557 11-309): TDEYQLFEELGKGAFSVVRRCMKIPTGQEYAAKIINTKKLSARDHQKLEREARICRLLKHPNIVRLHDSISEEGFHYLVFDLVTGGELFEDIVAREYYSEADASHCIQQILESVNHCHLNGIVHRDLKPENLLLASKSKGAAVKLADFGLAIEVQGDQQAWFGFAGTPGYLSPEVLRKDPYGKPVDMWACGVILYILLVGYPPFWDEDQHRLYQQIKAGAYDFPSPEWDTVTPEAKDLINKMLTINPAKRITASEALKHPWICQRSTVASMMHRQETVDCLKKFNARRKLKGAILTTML
Experimental: as §1

PIM1 = target: T4, PIM1 (Homo sapiens, UniProt P11309)
T4 construct: purchased in-house DSF panel (SGC Frankfurt)
T4 sequence (P11309 whole entry): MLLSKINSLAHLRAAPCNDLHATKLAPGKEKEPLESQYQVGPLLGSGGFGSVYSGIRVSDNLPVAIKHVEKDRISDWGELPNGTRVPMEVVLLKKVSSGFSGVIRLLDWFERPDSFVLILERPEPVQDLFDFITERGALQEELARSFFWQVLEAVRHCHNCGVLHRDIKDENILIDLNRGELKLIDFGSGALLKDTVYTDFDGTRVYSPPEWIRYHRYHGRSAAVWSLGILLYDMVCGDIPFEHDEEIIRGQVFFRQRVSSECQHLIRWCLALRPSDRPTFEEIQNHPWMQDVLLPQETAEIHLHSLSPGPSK
Experimental: as §1

DMPK1 = target: T5, DMPK1 (Homo sapiens, UniProt Q09013)
T5 construct: purchased in-house DSF panel (SGC Frankfurt)
T5 sequence (Q09013 1-629): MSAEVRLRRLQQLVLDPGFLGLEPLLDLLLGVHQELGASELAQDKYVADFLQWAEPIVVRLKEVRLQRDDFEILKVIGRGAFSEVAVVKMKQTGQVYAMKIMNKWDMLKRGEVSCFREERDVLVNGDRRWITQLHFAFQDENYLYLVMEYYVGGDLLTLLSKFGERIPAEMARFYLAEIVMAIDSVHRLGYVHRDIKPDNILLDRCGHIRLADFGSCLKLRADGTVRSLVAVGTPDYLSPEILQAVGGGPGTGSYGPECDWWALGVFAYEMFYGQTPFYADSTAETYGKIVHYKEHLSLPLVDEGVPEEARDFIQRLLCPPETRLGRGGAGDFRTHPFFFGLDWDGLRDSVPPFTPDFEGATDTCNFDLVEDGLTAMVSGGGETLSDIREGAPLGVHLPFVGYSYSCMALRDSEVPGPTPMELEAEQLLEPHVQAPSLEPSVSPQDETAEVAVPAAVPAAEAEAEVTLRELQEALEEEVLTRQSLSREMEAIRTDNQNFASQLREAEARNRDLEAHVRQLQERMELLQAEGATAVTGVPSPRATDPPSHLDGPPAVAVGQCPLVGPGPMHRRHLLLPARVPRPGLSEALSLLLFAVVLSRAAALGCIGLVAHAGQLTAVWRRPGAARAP
Experimental: as §1

MST3 = target: T6, MST3 (Homo sapiens, UniProt Q9Y6E0)
T6 construct: purchased in-house DSF panel (SGC Frankfurt)
T6 sequence (Q9Y6E0 4-301): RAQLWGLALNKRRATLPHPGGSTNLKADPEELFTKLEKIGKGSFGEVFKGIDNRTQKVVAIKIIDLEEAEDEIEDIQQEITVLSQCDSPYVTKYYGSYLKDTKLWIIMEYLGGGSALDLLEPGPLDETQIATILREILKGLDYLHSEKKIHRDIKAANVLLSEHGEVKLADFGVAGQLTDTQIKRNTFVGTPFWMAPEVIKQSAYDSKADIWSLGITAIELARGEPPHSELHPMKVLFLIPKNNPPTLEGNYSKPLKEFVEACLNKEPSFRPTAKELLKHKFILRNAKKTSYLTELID
Experimental: as §1

BRAF = target: T7, BRAF (Homo sapiens, UniProt P15056)
T7 construct: purchased in-house DSF panel (SGC Frankfurt)
T7 sequence (P15056 444-723): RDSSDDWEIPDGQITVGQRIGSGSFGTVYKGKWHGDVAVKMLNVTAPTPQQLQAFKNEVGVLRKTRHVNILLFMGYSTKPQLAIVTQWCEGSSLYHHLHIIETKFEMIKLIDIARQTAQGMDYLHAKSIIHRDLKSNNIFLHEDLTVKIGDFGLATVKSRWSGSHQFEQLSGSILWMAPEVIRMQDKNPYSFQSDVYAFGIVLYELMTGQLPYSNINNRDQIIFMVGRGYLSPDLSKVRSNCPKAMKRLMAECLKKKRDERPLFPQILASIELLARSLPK
Experimental: as §1

DAPK3 = target: T8, DAPK3 (Homo sapiens, UniProt O43293)
T8 construct: purchased in-house DSF panel (SGC Frankfurt)
T8 sequence (O43293 9-289): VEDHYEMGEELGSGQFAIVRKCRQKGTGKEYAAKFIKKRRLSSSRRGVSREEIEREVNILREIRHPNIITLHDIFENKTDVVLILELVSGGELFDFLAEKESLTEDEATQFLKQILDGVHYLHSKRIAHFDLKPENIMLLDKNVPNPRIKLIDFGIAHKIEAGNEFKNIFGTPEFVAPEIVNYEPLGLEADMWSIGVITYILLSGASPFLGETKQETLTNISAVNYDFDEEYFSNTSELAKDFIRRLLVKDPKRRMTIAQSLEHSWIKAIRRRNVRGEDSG
Experimental: as §1

MAPK14 = target: T9, MAPK14 (Homo sapiens, UniProt Q16539)
T9 construct: purchased in-house DSF panel (SGC Frankfurt)
T9 sequence (Q16539 whole entry): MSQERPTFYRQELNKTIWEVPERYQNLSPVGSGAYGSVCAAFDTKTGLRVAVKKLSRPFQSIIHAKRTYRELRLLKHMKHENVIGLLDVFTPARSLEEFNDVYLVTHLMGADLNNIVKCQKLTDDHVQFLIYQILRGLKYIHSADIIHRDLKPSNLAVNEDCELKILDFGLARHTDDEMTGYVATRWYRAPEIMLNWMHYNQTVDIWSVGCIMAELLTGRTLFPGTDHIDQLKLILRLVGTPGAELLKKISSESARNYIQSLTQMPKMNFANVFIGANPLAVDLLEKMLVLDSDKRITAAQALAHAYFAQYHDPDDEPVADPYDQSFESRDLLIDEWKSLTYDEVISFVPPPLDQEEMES
Experimental: as §1

PIM3 = target: T10, PIM3 (Homo sapiens, UniProt Q86V86);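 further: compound tested at 10 µM with 2 µM protein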
T10 construct: purchased in-house DSF panel (SGC Frankfurt)
Experimental: as §1

RPS6KA1 = system: RPS6KA1;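 further: compound tested at 10 µM with 2 µM protein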
Experimental: as §1

NEK1 = target: T11, NEK1 (Homo sapiens, UniProt Q96PY6)
T11 construct: purchased in-house DSF panel (SGC Frankfurt)
T11 sequence (Q96PY6 1-328): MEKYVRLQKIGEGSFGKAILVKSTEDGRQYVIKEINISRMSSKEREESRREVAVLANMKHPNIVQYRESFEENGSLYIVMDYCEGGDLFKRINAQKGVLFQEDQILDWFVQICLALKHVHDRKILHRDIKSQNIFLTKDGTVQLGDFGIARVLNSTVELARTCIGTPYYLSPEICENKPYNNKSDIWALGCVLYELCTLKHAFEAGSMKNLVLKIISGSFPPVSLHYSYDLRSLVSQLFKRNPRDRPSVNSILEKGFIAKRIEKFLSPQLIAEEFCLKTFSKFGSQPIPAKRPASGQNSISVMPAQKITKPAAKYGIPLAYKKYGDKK
Experimental: as §1

EPHA5 = target: T12, EPHA5 (Homo sapiens, UniProt P54756);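 further: compound tested at 10 µM with 2 µM protein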
T12 construct: purchased in-house DSF panel (SGC Frankfurt)
T12 sequence (P54756 653-939): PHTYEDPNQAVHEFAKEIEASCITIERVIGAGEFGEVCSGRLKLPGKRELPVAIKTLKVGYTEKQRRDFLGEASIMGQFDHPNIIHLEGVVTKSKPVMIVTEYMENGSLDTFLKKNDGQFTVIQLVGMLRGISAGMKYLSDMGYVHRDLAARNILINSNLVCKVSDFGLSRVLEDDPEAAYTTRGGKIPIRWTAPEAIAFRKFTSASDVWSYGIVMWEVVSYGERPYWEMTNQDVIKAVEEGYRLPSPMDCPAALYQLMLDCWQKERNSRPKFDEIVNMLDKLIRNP
Experimental: as §1

CLK1 = target: T13, CLK1 (Homo sapiens, UniProt P49759);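 further: compound tested at 10 µM with 2 µM protein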
T13 construct: purchased in-house DSF panel (SGC Frankfurt)
T13 sequence (P49759 148-484): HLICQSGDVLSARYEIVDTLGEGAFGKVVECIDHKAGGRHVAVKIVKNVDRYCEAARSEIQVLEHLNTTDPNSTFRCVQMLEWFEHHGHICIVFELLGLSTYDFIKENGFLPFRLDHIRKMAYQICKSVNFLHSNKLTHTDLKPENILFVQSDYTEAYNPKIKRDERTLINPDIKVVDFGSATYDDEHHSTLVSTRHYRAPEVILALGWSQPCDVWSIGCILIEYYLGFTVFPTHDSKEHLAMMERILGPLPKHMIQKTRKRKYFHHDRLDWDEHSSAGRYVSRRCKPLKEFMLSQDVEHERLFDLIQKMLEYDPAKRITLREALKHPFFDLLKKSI
Experimental: as §1

CC(C)OC(=O)c1cc(Nc2ccnc(NCc3ccc(NC(=O)OC(C)(C)C)cc3)n2)n[nH]1 [42d, isopropyl 3-((2-((4-((tert-butoxycarbonyl)amino)benzyl)amino)pyrimidin-4-yl)amino)-1H-pyrazole-5-carboxylate]
ΔTm CSNK1D (CSNK1D): 0.8 °C | ΔTm DYRK2 (DYRK2): 0.5 °C | ΔTm CAMK2D (CAMK2D): -0.4 °C | ΔTm PIM1 (PIM1): 0.2 °C | ΔTm DMPK1 (DMPK1): -0.1 °C | ΔTm MST3 (MST3): 0.8 °C | ΔTm BRAF (BRAF): 0.4 °C | ΔTm DAPK3 (DAPK3): 0.1 °C | ΔTm MAPK14 (MAPK14): -0.5 °C | ΔTm PIM3 (PIM3): -1.1 °C | ΔTm RPS6KA1 (RPS6KA1): -0.3 °C | ΔTm NEK1 (NEK1): 0.2 °C | ΔTm EPHA5 (EPHA5): -0.6 °C | ΔTm CLK1 (CLK1): 0.0 °C

COC(=O)c1cc(Nc2ccnc(NCc3ccc(NC(=O)OC(C)(C)C)cc3)n2)[nH]n1 [21i, methyl 5-((2-((4-((tert-butoxycarbonyl)amino)benzyl)amino)pyrimidin-4-yl)amino)-1H-pyrazole-3-carboxylate]
ΔTm CSNK1D (CSNK1D): 0.4 °C | ΔTm DYRK2 (DYRK2): 1.1 °C | ΔTm CAMK2D (CAMK2D): 0.6 °C | ΔTm PIM1 (PIM1): -0.6 °C | ΔTm DMPK1 (DMPK1): 0.1 °C | ΔTm MST3 (MST3): 0.1 °C | ΔTm BRAF (BRAF): 1.0 °C | ΔTm DAPK3 (DAPK3): -0.6 °C | ΔTm MAPK14 (MAPK14): -0.6 °C | ΔTm PIM3 (PIM3): -0.4 °C | ΔTm RPS6KA1 (RPS6KA1): 1.0 °C | ΔTm NEK1 (NEK1): 0.4 °C | ΔTm EPHA5 (EPHA5): 0.2 °C | ΔTm CLK1 (CLK1): 1.3 °C

CC(C)(C)OC(=O)Nc1ccc(CNc2nccc(Nc3cc(C(=O)OC(C)(C)C)[nH]n3)n2)cc1 [43d, tert-butyl 3-((2-((4-((tert-butoxycarbonyl)amino)benzyl)amino)pyrimidin-4-yl)amino)-1H-pyrazole-5-carboxylate]
ΔTm CSNK1D (CSNK1D): 1.0 °C | ΔTm DYRK2 (DYRK2): 0.8 °C | ΔTm CAMK2D (CAMK2D): -0.1 °C | ΔTm PIM1 (PIM1): -0.7 °C | ΔTm DMPK1 (DMPK1): -0.1 °C | ΔTm MST3 (MST3): -0.3 °C | ΔTm BRAF (BRAF): 0.7 °C | ΔTm DAPK3 (DAPK3): 0.3 °C | ΔTm MAPK14 (MAPK14): -0.3 °C | ΔTm PIM3 (PIM3): -1.6 °C | ΔTm RPS6KA1 (RPS6KA1): 0.2 °C | ΔTm NEK1 (NEK1): 0.1 °C | ΔTm EPHA5 (EPHA5): -2.7 °C | ΔTm CLK1 (CLK1): -0.5 °C

COC(=O)c1cc(Nc2ccnc(NCCOCCNC(=O)OC(C)(C)C)n2)[nH]n1 [21d, methyl 5-((2-((2-(2-((tert-butoxycarbonyl)amino)ethoxy)ethyl)amino)pyrimidin-4-yl)amino)-1H-pyrazole-3-carboxylate]
ΔTm CSNK1D (CSNK1D): 0.2 °C | ΔTm DYRK2 (DYRK2): 2.1 °C | ΔTm CAMK2D (CAMK2D): 0.8 °C | ΔTm PIM1 (PIM1): 2.1 °C | ΔTm DMPK1 (DMPK1): 0.5 °C | ΔTm MST3 (MST3): -0.3 °C | ΔTm BRAF (BRAF): 0.9 °C | ΔTm DAPK3 (DAPK3): 3.3 °C | ΔTm MAPK14 (MAPK14): -0.3 °C | ΔTm PIM3 (PIM3): 0.0 °C | ΔTm RPS6KA1 (RPS6KA1): 0.5 °C | ΔTm NEK1 (NEK1): 0.1 °C | ΔTm EPHA5 (EPHA5): 0.2 °C | ΔTm CLK1 (CLK1): 1.8 °C

N#CCc1ccc(Nc2nccc(Nc3cc(C4CC4)[nH]n3)n2)cc1 [compound 1, reference compound]
ΔTm CSNK1D (CSNK1D): 3.1 °C | ΔTm DYRK2 (DYRK2): 11.0 °C | ΔTm CAMK2D (CAMK2D): 4.5 °C | ΔTm PIM1 (PIM1): 3.3 °C | ΔTm DMPK1 (DMPK1): 3.2 °C | ΔTm MST3 (MST3): 9.3 °C | ΔTm BRAF (BRAF): 4.6 °C | ΔTm DAPK3 (DAPK3): 9.7 °C | ΔTm MAPK14 (MAPK14): 2.5 °C | ΔTm PIM3 (PIM3): 3.8 °C | ΔTm RPS6KA1 (RPS6KA1): 5.1 °C | ΔTm NEK1 (NEK1): 1.1 °C | ΔTm EPHA5 (EPHA5): 6.3 °C | ΔTm CLK1 (CLK1): 12.2 °C
